Data published in publication PMC9305623, “Next generation GLP-1/GIP/glucagon triple agonists normalize body weight in obese mice” (Molecular Metabolism, 2022).
*1 amine or outer side, *2 acyl side, *3 side chain or, on linkers, in order; H or OH if unused. Where a SMILES comes first, the peptide text is derived from it. Side-chain parts run from the residue outwards. [ ]: non-standard residue; d: D form. The star is where a group is joined. C20 diacid = O=C(O)CCCCCCCCCCCCCCCCCCC(=O)*; γGlu = O=C(O)[C@H](CCC(=O)[*:2])N[*:1]; εLys = N[C@@H](CCCCN[*:1])C(=O)[*:2]; Aib = CC(C)(N)C(=O)O

How the values were obtained:
[1] = molecular target: T1, mGLP-1 Receptor (Mus musculus, UniProt O35659); assay: Receptor activation: cAMP production by CRE-luciferase reporter in stably transfected BHK cells; format: cell-based; conditions: relative to native ligand at mouse-derived receptor
T1 construct: expressed in transfected cells; host or cells: baby hamster kidney (BHK) cells, stably transfected, with CRE-firefly luciferase reporter
T1 sequence (O35659 22-463): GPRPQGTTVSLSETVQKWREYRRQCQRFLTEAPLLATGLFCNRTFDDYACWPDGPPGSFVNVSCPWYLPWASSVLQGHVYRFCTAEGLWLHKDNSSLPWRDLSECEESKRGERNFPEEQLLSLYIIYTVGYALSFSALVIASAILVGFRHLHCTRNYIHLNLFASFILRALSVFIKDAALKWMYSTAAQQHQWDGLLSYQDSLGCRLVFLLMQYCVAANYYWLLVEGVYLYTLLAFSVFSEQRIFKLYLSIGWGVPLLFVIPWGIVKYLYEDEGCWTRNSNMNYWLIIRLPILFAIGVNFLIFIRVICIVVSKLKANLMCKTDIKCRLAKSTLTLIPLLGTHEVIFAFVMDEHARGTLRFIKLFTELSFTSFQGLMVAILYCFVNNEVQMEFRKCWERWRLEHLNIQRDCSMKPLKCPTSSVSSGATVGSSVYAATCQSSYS
Protocol: (§1) Cyclic AMP (cAMP) production was assessed as a proxy for receptor activation using stably transfected baby hamster kidney (BHK) cell lines expressing the DNA for one individual receptor (GLP-1R, GIPR, GcgR; human- or mouse-specific sequence) and the DNA for the firefly luciferase reporter gene linked to the cAMP response element (CRE). The cells were kept in continuous culture at 37 °C and 5% CO2 in Dulbecco's Modified Eagle Medium (DMEM) supplemented with 10% heat-inactivated fetal bovine serum (HI-FBS), 300 μg/mL hygromycin, and 500 μg/mL G418; for cell lines expressing GIPR, the G418 concentration was lowered to 400 μg/mL. Cells were plated in a 96-well poly-D-lysine-coated plate at 5,000 cells per well in growth media and incubated overnight at 37 °C with 5% CO2. After the overnight incubation, the media was removed, the plate was washed once in Dulbecco's phosphase-buffered saline (DPBS), and 50 μL of assay buffer (DMEM without phenol red, 10 mM HEPES, 1x Glutamax, 1% ovalbumin, 0.1% Pluronic F-68) was added to each well. […] The assay plate was covered to protect reagent from light, shaken at 250 rpm at room temperature for 30 min, and read in a microtiter plate reader. EC50 values were calculated using Prism software (GraphPad) with the nonlinear regression log(agonist) vs. response. A minimum of two replicates were measured for each sample.

[2] = molecular target: T2, mGcg Receptor (Mus musculus, UniProt Q61606); assay: as above; format: cell-based; conditions: relative to native ligand at mouse-derived receptor
T2 construct: expressed in transfected cells; host or cells: baby hamster kidney (BHK) cells, stably transfected, with CRE-firefly luciferase reporter
Protocol: as §1

[3] = tested on: DIO mice; assay: Pharmacodynamics in DIO mice: body weight, food intake, body composition; format: in vivo, mouse (male C57BL/6J)
Protocol: Studies were approved by and performed according to the guidelines of the Institutional Animal Care and Use Committee of the University of Cincinnati. Male C57BL/6J mice (Jackson Laboratories) were housed 4 per cage, exposed to a controlled 12 h/12 h light–dark cycle at room temperature (22 °C), and provided ab libitum access to water and a 58% fat, high-sugar diet (D12331, Research Diets) for 12 weeks. Mice exceeding 50 g of body weight were considered diet-induced obese (DIO) and included in studies, where they were randomized and evenly distributed to test groups (n = 8 per group) according to body weight. Test compounds dissolved at a concentration of 0.5–2 μM in a vehicle (pH 7.4) containing 0.05% polysorbate-80, 50 mM sodium phosphate, and 70 mM sodium chloride were administered subcutaneously once daily, unless otherwise noted, during the light cycle for each day of treatment at a volume of 2–5 μL per gram of body weight as necessary to achieve the desired dose. Body weight and food intake were measured immediately prior to dosing each day. The percent change in body was calculated individually for each mouse based on initial body weight prior to the first injection. For intraperitoneal (i.p.) glucose tolerance tests (IPGTT), animals were fasted for 6 h prior to the test but had access to water. Fasted blood glucose levels were measured, then mice were injected with an i.p. glucose load of 2 g/kg from a 200 mg/mL aqueous glucose solution. Tail blood glucose levels were measured 0, 15, 30, 60, 90, and 120 min following the glucose load using a handheld glucometer (Freestyle, Abbott).

[4] = molecular target: T3, mGIP Receptor (Mus musculus, UniProt Q0P543); assay: Receptor activation: cAMP production by CRE-luciferase reporter in stably transfected BHK cells; format: cell-based; conditions: relative to native ligand at mouse-derived receptor
T3 construct: expressed in transfected cells; host or cells: baby hamster kidney (BHK) cells, stably transfected, with CRE-firefly luciferase reporter
T3 sequence (Q0P543 19-460): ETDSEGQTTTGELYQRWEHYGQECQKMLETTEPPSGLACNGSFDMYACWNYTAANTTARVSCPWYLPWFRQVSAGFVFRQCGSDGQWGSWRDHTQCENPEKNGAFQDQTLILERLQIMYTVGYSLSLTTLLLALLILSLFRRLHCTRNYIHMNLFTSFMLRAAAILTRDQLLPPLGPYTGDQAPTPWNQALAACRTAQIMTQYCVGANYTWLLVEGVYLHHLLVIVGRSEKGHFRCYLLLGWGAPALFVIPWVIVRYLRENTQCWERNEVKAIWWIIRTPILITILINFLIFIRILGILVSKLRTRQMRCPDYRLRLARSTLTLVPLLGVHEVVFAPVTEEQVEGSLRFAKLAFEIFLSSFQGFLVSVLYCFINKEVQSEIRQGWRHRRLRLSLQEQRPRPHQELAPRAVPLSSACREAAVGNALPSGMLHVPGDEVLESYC

[5] = molecular target: T4, hGcg Receptor (Homo sapiens, UniProt P47871); assay: as above; format: cell-based; conditions: compared to the native ligand for the receptor
T4 construct: expressed in transfected cells; host or cells: baby hamster kidney (BHK) cells, stably transfected, with CRE-firefly luciferase reporter
In short: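 BHK cells stably expressing one human receptor plus a CRE-firefly luciferase reporter were stimulated 3 h at 37 °C in phenol-red-free DMEM with 1% ovalbumin and 0.1% Pluronic F-68.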

T4 sequence (P47871 26-477): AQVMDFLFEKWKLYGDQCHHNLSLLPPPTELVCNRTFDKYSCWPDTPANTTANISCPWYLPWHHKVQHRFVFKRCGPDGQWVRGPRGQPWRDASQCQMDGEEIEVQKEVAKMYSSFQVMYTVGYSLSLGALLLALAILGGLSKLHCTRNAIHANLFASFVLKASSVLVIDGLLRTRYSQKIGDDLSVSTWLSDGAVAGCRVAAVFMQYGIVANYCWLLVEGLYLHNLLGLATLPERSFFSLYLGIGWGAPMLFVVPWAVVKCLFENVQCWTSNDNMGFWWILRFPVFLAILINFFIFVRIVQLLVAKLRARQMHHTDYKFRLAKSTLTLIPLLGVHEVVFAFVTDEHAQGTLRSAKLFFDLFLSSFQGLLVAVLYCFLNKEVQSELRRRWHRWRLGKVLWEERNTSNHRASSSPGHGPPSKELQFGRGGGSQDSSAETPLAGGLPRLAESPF
T2 sequence (Q61606 27-485): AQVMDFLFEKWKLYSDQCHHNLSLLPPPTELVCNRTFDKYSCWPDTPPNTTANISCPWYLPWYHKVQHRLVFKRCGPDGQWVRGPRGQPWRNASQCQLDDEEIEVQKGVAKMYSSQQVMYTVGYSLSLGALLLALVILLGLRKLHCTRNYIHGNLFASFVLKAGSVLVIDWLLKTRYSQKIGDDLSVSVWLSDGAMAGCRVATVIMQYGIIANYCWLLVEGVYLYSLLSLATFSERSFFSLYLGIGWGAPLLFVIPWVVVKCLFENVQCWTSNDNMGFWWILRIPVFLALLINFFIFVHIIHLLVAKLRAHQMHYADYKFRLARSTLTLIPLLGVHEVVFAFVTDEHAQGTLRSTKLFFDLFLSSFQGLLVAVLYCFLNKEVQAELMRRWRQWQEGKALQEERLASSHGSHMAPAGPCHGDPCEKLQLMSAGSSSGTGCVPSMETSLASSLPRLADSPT

CC[C@H](C)[C@H](NC(=O)[C@H](CO)NC(=O)[C@H](Cc1ccc(O)cc1)NC(=O)[C@H](CC(=O)O)NC(=O)[C@H](CO)NC(=O)[C@@H](NC(=O)[C@H](Cc1ccccc1)NC(=O)[C@@H](NC(=O)CNC(=O)[C@H](Cc1c[nH]cn1)NC(=O)C(C)(C)NC(=O)[C@@H](N)Cc1c[nH]cn1)[C@@H](C)O)[C@@H](C)O)C(=O)N[C@@H](Cc1ccc(O)cc1)C(=O)N[C@@H](CC(C)C)C(=O)N[C@@H](CCC(=O)O)C(=O)N[C@@H](CCCCNC(=O)[C@@H](N)CCCCNC(=O)[C@@H](N)CCCCNC(=O)CC[C@H](NC(=O)CCCCCCCCCCCCCCCCCCC(=O)O)C(=O)O)C(=O)N[C@@H](CCCCN)C(=O)N[C@@H](Cc1ccc(O)cc1)C(=O)N[C@@H](C)C(=O)NC(C)(C)C(=O)N[C@@H](CCC(=O)O)C(=O)N[C@@H](Cc1ccccc1)C(=O)N[C@H](C(=O)N[C@@H](CCC(N)=O)C(=O)N[C@@H](Cc1c[nH]c2ccccc12)C(=O)N[C@@H](CC(C)C)C(=O)N[C@@H](CC(C)C)C(=O)N[C@@H](CCC(=O)O)C(=O)NCC(=O)NCC(=O)N1CCC[C@H]1C(=O)N[C@@H](CO)C(=O)N[C@@H](CO)C(=O)NCC(=O)N[C@@H](C)C(=O)N1CCC[C@H]1C(=O)N1CCC[C@H]1C(=O)N1CCC[C@H]1C(=O)N[C@@H](CO)C(N)=O)C(C)C [Compound 16] (H-H[Aib]HGTFTSDYSIYLEK([εLys-εLys-γGlu-C20 diacid])KYA[Aib]EFVQWLLEGGPSSGAPPPS-NH2)
mGLP-1 Receptor Relative Potency % [1]: 142%
mGcg Receptor Relative Potency % [2]: 78%
body weight loss at high dose versus first generation triagonist and SAR441255 ([3]; 2 nmol/kg): significantly superior body weight loss
weight lowering efficacy versus tirzepatide ([3]; 3 nmol/kg daily and dose-escalated (1 to 30 nmol/kg) groups, s.c.): significantly more weight lowering efficacy
Body weight reductions ([3]; 3 nmol/kg daily dose s.c., after 2 weeks of treatment): greater than 30%
origin of weight loss (fat mass vs lean mass) ([3]; 1 or 2 nmol/kg): predominantly derived from a reduction in fat mass, not lean mass
animals achieving body weight normalization (average weight of lean litter mates, 22.5 g) ([3]; n = 8 per group, up-titrated from 1 to 10 nmol/kg over 24 days, then 10 nmol/kg for up to 18 days): Five of the eight
body weight loss in animals achieving body weight normalization ([3]; s.c. once daily, up-titrated from 1 to 10 nmol/kg over 24 days, then 10 nmol/kg for up to 18 days): 55–60%
mGIP Receptor Relative Potency % [4]: 265%
hGcg Receptor Relative Potency % [5]: 102%
